From patent US12258339B2, “Macrocyclic complexes of alpha-emitting radionuclides and their use in targeted radiotherapy of cancer” (Cornell University, priority 2018, dated 2025)

Experiment: Stability of [^225Ac(macropa)]^+ in human serum
Format: in vitro ADME
Settings: radio-TLC
Method: […]. [^225Ac(macropa)]^+ and [^225Ac(DOTA)]^− were prepared using 10^−5 M and 10^−3 M stock solutions (10 μL) of macropa and DOTA, respectively, to give final ligand concentrations of 5.9×10^−7 M (macropa) and 5.9×10^−5 M (DOTA). After confirming a radiochemical yield of >90% by TLC using 0.4 M sodium citrate (pH 4) containing 10% MeOH as the mobile phase, 160 μL of human serum (an equal volume based on labeling reaction volume) were added to each radiolabeled solution. A control solution was also prepared in which water was substituted for ligand. The solutions were monitored over the course of 8 days by iTLC. The plates were developed with EDTA (50 mM, pH 5) as the eluent. Under these conditions, [^225Ac(macropa)]^+ and [^225Ac(DOTA)]^− complexes remained at the baseline (RF=0) and any ^225Ac (^225Ac-EDTA) that had been transchelated by serum migrated with the solvent front (RF=1). Percent of complex remaining intact was calculated.
The long half-life of ^225Ac necessitates its stable complex retention in vivo to avoid off-target damage to normal tissues arising from the release of free ^225Ac^3+. Furthermore, the stability of ^225Ac complexes against transmetalation and transchelation needs to be high. To determine the kinetic inertness, [^225Ac(macropa)]^+ was challenged with La^3+ because of the established high affinity of macropa for this metal ion. […]

O=C([O-])c1cccc(CN2CCOCCOCCN(Cc3cccc(C(=O)[O-])n3)CCOCCOCC2)n1.[225Ac+3] [[^225Ac(macropa)]^+]
time ^225Ac^3+ remains complexed in human serum: at least 8 days
